Experiments:
Assay type in all cases: biochemical
CDK2/CycA = biological target: T1, CDK2/CycA (Homo sapiens, UniProt P24941); experiment: CDK2 Enzymatic Activity Assay (Lance Kinase Activity Assay, FRET); conditions: Table 5B, class symbols per IC50 [nM] ranges of b581; read-out: CDK2: Selectivity of CDK7 inhibition over CDK2 inhibition
T1 construct: purchased Proqinase
Method in brief: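 LANCE TR-FRET assay: CDK2/CycA phosphorylated ULight-MBP peptide in HEPES 50 mM pH 7.5 buffer with MgCl2, EGTA, DTT and Tween-20 for 1 h at room temperature. Eu-anti-phospho-MBP antibody with EDTA was then added for 1 h before reading. IC50 was fitted from 8-point, 1:3 sigmoidal dose-response curves.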

CDK7/CycH/Mat1 = CDK7/CycH/Mat1 (Homo sapiens, UniProt P50613); experiment: CDK7 Enzymatic Activity Assay (Lance Kinase Activity Assay, FRET); conditions: CDK7/CycH/Mat1, 25 μM ATP final; class ranges; read-out: CDK7: IC50 [nM] for CDK7 inhibition
Method in brief: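 Ulight-MBP peptide phosphorylation by CDK7/CycH/Mat1 in HEPES 50 mM pH 7.5, MgCl2, EGTA, DTT, Tween-20; 1 h at room temperature, then EDTA stop with Eu-anti-phospho-MBP antibody for 1 h and TR-FRET read. Compounds in 8-point 1:3 DMSO series; IC50 from sigmoidal dose-response fit.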

CDK9/Cyclin T1 = CDK9/Cyclin T1 (Homo sapiens, UniProt P50750); experiment: CDK9 Enzymatic Activity Assay (Lance Kinase Activity Assay, FRET); conditions: Table 5B, class symbols per IC50 [nM] ranges of b581; read-out: CDK9: Selectivity of CDK7 inhibition over CDK9 inhibition
Method in brief: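 CDK9/cyclin T1 phosphorylation of a ULight-MBP peptide was run for 1 h at room temperature in pH 7.5 HEPES buffer with MgCl2, EGTA, DTT and Tween-20. It was followed by 1 h with Eu-anti-phospho-MBP antibody (4 nM) in EDTA detection buffer. TR-FRET loss gave IC50 from 8-point, 1:3 sigmoidal dose-response curves.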

CDK9/Cyclin T1, sequence (P50750 whole entry): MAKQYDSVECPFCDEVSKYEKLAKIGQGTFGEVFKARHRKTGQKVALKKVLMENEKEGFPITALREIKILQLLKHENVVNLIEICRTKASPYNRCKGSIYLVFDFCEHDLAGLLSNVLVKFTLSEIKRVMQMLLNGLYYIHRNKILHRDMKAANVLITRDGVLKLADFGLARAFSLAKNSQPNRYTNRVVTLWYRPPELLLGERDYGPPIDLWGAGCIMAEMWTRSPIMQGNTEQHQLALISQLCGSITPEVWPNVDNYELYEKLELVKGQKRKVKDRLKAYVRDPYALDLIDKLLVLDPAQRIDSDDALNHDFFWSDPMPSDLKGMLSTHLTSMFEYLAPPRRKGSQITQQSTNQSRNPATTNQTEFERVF
CDK9/Cyclin T1, sequence (O60563 whole entry partner): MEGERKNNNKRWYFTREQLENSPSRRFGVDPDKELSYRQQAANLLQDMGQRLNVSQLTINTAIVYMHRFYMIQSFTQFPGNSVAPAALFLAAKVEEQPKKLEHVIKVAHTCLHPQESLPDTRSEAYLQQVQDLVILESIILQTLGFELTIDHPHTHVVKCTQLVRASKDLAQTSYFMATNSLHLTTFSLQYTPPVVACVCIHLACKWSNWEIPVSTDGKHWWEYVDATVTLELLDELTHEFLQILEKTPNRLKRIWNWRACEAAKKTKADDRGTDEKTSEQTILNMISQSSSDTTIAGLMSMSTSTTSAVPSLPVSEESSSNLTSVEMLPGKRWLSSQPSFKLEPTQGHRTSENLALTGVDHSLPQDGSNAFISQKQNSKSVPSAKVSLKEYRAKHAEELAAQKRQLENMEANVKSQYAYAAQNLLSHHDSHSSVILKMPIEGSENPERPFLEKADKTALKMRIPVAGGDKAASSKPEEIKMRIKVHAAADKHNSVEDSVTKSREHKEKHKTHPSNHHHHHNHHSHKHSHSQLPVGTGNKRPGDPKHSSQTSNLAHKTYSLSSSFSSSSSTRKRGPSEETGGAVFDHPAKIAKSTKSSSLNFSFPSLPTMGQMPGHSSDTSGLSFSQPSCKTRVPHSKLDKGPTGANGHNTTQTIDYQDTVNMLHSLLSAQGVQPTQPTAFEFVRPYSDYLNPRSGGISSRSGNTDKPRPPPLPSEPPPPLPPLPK
CDK7/CycH/Mat1, sequence (P50613 whole entry): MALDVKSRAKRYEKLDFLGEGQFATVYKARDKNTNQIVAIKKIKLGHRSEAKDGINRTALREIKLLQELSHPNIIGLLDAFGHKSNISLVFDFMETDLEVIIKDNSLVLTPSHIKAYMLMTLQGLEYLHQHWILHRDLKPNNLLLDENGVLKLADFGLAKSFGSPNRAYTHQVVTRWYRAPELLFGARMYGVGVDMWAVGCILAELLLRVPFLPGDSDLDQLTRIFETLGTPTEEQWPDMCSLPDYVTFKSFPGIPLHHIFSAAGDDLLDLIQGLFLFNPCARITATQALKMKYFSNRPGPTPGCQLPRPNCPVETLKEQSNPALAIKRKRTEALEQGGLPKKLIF

Row | SMILES | IC50 (CDK2/CycA) [nM] | IC50 (CDK7/CycH/Mat1) [nM] | IC50 (CDK9/Cyclin T1) [nM]
1 | CC(C)c1cnn2c(NCc3ccccc3[S+](C)[O-])nc(O[C@@H]3CCCNC3)nc12 (stereo partly drawn) [(VII-152), 8-isopropyl-N-(2-(methylsulfinyl)benzyl)-2-((R)-piperidin-3-yloxy)pyrazolo[1,5-a][1,3,5]triazin-4-amine] | 50 to 500 | 10 to 25 | 500 to 2500
2 | CC(C)c1cnn2c(NCc3ccccc3[S+]([O-])C3CCCC3)nc(O[C@@H]3CCCNC3)nc12 (stereo partly drawn) [(VII-153), N-(2-(cyclopentylsulfinyl)benzyl)-8-isopropyl-2-((R)-piperidin-3-yloxy)pyrazolo[1,5-a][1,3,5]triazin-4-amine] | > 2500 | 10 to 25 | > 2500
3 | CC(C)c1cnn2c(NCc3ccccc3S(C)(=O)=O)nc(O[C@@H]3CCCNC3)nc12 [(VII-154), (R)-8-isopropyl-N-(2-(methylsulfonyl)benzyl)-2-(piperidin-3-yloxy)pyrazolo[1,5-a][1,3,5]triazin-4-amine] | 50 to 500 | < 5 | > 2500
4 | CC(C)c1cnn2c(NCc3ccccc3-n3cccn3)nc(NC3CCCNC3)nc12 (stereo not drawn) [(VIII-01), N4-(2-(1H-pyrazol-1-yl)benzyl)-8-isopropyl-N2-(piperidin-3-yl)pyrazolo[1,5-a][1,3,5]triazine-2,4-diamine] | 50 to 500 | < 5 | > 2500
5 | CC(C)c1cnn2c(NCc3ccccc3-n3cccn3)nc(N3CCC4(CCCN4)CC3)nc12 [(VIII-11), N-(2-(1H-pyrazol-1-yl)benzyl)-8-isopropyl-2-(1,8-diazaspiro[4.5]decan-8-yl)pyrazolo[1,5-a][1,3,5]triazin-4-amine] | 500 to 2500 | < 5 | > 2500
6 | CC(C)c1cnn2c(NCc3ccccc3-n3cccn3)nc(N3CCC4(CCCN4)C3)nc12 (stereo not drawn) [(VIII-17), N-(2-(1H-pyrazol-1-yl)benzyl)-8-isopropyl-2-(1,7-diazaspiro[4.4]nonan-7-yl)pyrazolo[1,5-a][1,3,5]triazin-4-amine] | 500 to 2500 | < 5 | > 2500
7 | CC(C)c1cnn2c(NCc3ccccc3-n3cccn3)nc(N3CCCC4(CCNCC4)C3)nc12 [(VIII-21), N-(2-(1H-pyrazol-1-yl)benzyl)-8-isopropyl-2-(2,9-diazaspiro[5.5]undecan-2-yl)pyrazolo[1,5-a][1,3,5]triazin-4-amine] | 500 to 2500 | 5 to 10 | > 2500
8 | CC(C)c1cnn2c(NCc3ccccc3-n3cccn3)nc(N3CCC4(CCCCN4)CC3)nc12 [(VIII-23), N-(2-(1H-pyrazol-1-yl)benzyl)-8-isopropyl-2-(1,9-diazaspiro[5.5]undecan-9-yl)pyrazolo[1,5-a][1,3,5]triazin-4-amine] | 500 to 2500 | < 5 | 500 to 2500
9 | CC(C)c1cnn2c(NCc3ccccc3-n3cccn3)nc(N3CCC(N(C)C)CC3)nc12 [(VIII-24), N-(2-(1H-pyrazol-1-yl)benzyl)-2-(4-(dimethylamino)piperidin-1-yl)-8-isopropylpyrazolo[1,5-a][1,3,5]triazin-4-amine] | 50 to 500 | < 5 | 500 to 2500
10 | CNC1CCN(c2nc(NCc3ccccc3-n3cccn3)n3ncc(C(C)C)c3n2)CC1 [(VIII-25), N-(2-(1H-pyrazol-1-yl)benzyl)-8-isopropyl-2-(4-(methylamino)piperidin-1-yl)pyrazolo[1,5-a][1,3,5]triazin-4-amine] | 50 to 500 | < 5 | 500 to 2500
11 | CC(C)Oc1ccccc1CNc1nc(N[C@@H]2CCCNC2)nc2c(C(C)C)cnn12 [(VIII-32), (R)-N4-(2-isopropoxybenzyl)-8-isopropyl-N2-(piperidin-3-yl)pyrazolo[1,5-a][1,3,5]triazine-2,4-diamine] | 500 to 2500 | 5 to 10 | > 2500
12 | CC(C)c1cnn2c(NCc3ccccc3-n3cncn3)nc(N[C@@H]3CCCNC3)nc12 [(VIII-33), (R)-N4-(2-(1H-1,2,4-triazol-1-yl)benzyl)-8-isopropyl-N2-(piperidin-3-yl)pyrazolo[1,5-a][1,3,5]triazine-2,4-diamine] | < 50 | < 5 | 500 to 2500
13 | CC(C)c1cnn2c(NCc3cccc4nonc34)nc(N3CCC4(CCCN4)CC3)nc12 [(VIII-36), N-(benzo[c][1,2,5]oxadiazol-4-ylmethyl)-8-isopropyl-2-(1,8-diazaspiro[4.5]decan-8-yl)pyrazolo[1,5-a][1,3,5]triazin-4-amine] | > 2500 | < 5 | 500 to 2500
14 | CC(C)c1cnn2c(NCc3ccccc3-n3cccn3)nc(N3CCC4(CCNCC4)C3)nc12 [(VIII-37), N-(2-(1H-pyrazol-1-yl)benzyl)-8-isopropyl-2-(2,8-diazaspiro[4.5]decan-2-yl)pyrazolo[1,5-a][1,3,5]triazin-4-amine] | > 2500 | < 5 | > 2500

The remaining lines, values ahead:

Row | IC50 (CDK2/CycA) [nM] | IC50 (CDK7/CycH/Mat1) [nM] | IC50 (CDK9/Cyclin T1) [nM] | SMILES
15 | > 2500 | < 5 | > 2500 | CC(C)c1cnn2c(NCc3ccccc3N3CCCC3=O)nc(N3CCC4(CCCN4)CC3)nc12 [(VIII-38), 1-(2-(((8-isopropyl-2-(1,8-diazaspiro[4.5]decan-8-yl)pyrazolo[1,5-a][1,3,5]triazin-4-yl)amino)methyl)phenyl)pyrrolidin-2-one]
16 | > 2500 | > 25 | > 2500 | CC(C)c1cnn2c(NCc3ccccc3-n3cccn3)nc(NCCCN)nc12 [(VIII-039), N4-(2-(1H-pyrazol-1-yl)benzyl)-N2-(3-aminopropyl)-8-isopropylpyrazolo[1,5-a][1,3,5]triazine-2,4-diamine]
17 | > 2500 | > 25 | > 2500 | CC(C)c1cnn2c(NCc3ccccc3-n3cccn3)nc(NCCN3CCCC3)nc12 [(VIII-040), N4-(2-(1H-pyrazol-1-yl)benzyl)-8-isopropyl-N2-(2-(pyrrolidin-1-yl)ethyl)pyrazolo[1,5-a][1,3,5]triazine-2,4-diamine]
18 | > 2500 | > 25 | > 2500 | CC(C)c1cnn2c(NCc3ccccc3-n3cccn3)nc(N3CC(N4CCC(F)(F)C4)C3)nc12 [(VIII-041), N-(2-(1H-pyrazol-1-yl)benzyl)-2-(3-(3,3-difluoropyrrolidin-1-yl)azetidin-1-yl)-8-isopropylpyrazolo[1,5-a][1,3,5]triazin-4-amine]
19 | 50 to 500 | 5 to 10 | > 2500 | CC(C)c1cnn2c(NCc3ccccc3-n3cccn3)nc(NC3CCNC3)nc12 (stereo not drawn) [(VIII-043), N4-(2-(1H-pyrazol-1-yl)benzyl)-8-isopropyl-N2-(pyrrolidin-3-yl)pyrazolo[1,5-a][1,3,5]triazine-2,4-diamine]
20 | > 2500 | > 25 | > 2500 | CC(C)c1cnn2c(NCc3ccccc3-n3cccn3)nc(NCCCN3CCOCC3)nc12 [(VIII-044), N4-(2-(1H-pyrazol-1-yl)benzyl)-8-isopropyl-N2-(3-morpholinopropyl)pyrazolo[1,5-a][1,3,5]triazine-2,4-diamine]
21 | > 2500 | 10 to 25 | > 2500 | CC(C)c1cnn2c(NCc3ccccc3-n3cccn3)nc(N(C)CCN3CCCC3)nc12 [(VIII-045), N4-(2-(1H-pyrazol-1-yl)benzyl)-8-isopropyl-N2-methyl-N2-(2-(pyrrolidin-1-yl)ethyl)pyrazolo[1,5-a][1,3,5]triazine-2,4-diamine]
22 | > 2500 | > 25 | > 2500 | CC(C)c1cnn2c(NCc3ccccc3-n3cccn3)nc(NCCN3CCOCC3)nc12 [(VIII-046), N4-(2-(1H-pyrazol-1-yl)benzyl)-8-isopropyl-N2-(2-morpholinoethyl)pyrazolo[1,5-a][1,3,5]triazine-2,4-diamine]
23 | > 2500 | > 25 | > 2500 | CC(C)c1cnn2c(NCc3ccccc3-n3cccn3)nc(N3CC(N4CCCC4=O)C3)nc12 [(VIII-047), 1-(1-(4-((2-(1H-pyrazol-1-yl)benzyl)amino)-8-isopropylpyrazolo[1,5-a][1,3,5]triazin-2-yl)azetidin-3-yl)pyrrolidin-2-one]
24 | > 2500 | 10 to 25 | > 2500 | CC(C)c1cnn2c(NCc3ccccc3-n3cccn3)nc(NCCOCCN)nc12 [(VIII-048), N4-(2-(1H-pyrazol-1-yl)benzyl)-N2-(2-(2-aminoethoxy)ethyl)-8-isopropylpyrazolo[1,5-a][1,3,5]triazine-2,4-diamine]
25 | > 2500 | > 25 | > 2500 | CC(C)c1cnn2c(NCc3ccccc3-n3cccn3)nc(N(C)CCCN3CCCCC3)nc12 [(VIII-049), N4-(2-(1H-pyrazol-1-yl)benzyl)-8-isopropyl-N2-methyl-N2-(3-(piperidin-1-yl)propyl)pyrazolo[1,5-a][1,3,5]triazine-2,4-diamine]
26 | > 2500 | 10 to 25 | > 2500 | CC(C)c1cnn2c(NCc3ccccc3-n3cccn3)nc(N3CC4CCNC4C3)nc12 (stereo not drawn) [(VIII-050), N-(2-(1H-pyrazol-1-yl)benzyl)-2-(hexahydropyrrolo[3,4-b]pyrrol-5(1H)-yl)-8-isopropylpyrazolo[1,5-a][1,3,5]triazin-4-amine]

Source: patent US9567345B2, “Pharmaceutically active pyrazolo-triazine derivatives” (LEAD DISCOVERY CENTER GMBH, priority 2012, dated 2017)
